These results are taken from ChEMBL document CHEMBL2073833, “Biliary excretion of glycyrrhizin in rats: kinetic basis for multiplicity in bile canalicular transport of organic anions” (Pharm Res, 1996).

Holding throughout (conditions): in vivo
Series [1] deals with T1, ATP-binding cassette sub-family C member 2 (Rattus norvegicus, UniProt Q63120). As to the kind of experiment: TP_TRANSPORTER: inhibition of GR biliary excretion (70.8->23.5 % of dose, DBSP: 3 uM/min/kg iv infusion, GR: 10 mg/kg iv) in SD rat. Format: functional, organism-based, Sprague-Dawley, Bile. More on the design: dose 10 mg/kg, route intravenous.
Series [2] addresses T1, ATP-binding cassette sub-family C member 2. Nature of the series: TP_TRANSPORTER: inhibition of GR biliary excretion (70.8->23.5 % of dose, DBSP: 3 uM/min/kg iv infusion, GR: 10 mg/kg iv) in EHBR rat. The class given is functional, organism-based, Bile. The arrangement: dose 10 mg/kg, route intravenous.
Series [3] shares this target. Nature of the series: TP_TRANSPORTER: biliary excretion in SD rat. The class given is functional, organism-based, Sprague-Dawley, Bile.
The target is the same in series [4]. Nature of the series: TP_TRANSPORTER: biliary excretion in EHBR rat. Format: functional, organism-based, Bile.

T1 sequence (Q63120 whole entry, the tested form may be a part): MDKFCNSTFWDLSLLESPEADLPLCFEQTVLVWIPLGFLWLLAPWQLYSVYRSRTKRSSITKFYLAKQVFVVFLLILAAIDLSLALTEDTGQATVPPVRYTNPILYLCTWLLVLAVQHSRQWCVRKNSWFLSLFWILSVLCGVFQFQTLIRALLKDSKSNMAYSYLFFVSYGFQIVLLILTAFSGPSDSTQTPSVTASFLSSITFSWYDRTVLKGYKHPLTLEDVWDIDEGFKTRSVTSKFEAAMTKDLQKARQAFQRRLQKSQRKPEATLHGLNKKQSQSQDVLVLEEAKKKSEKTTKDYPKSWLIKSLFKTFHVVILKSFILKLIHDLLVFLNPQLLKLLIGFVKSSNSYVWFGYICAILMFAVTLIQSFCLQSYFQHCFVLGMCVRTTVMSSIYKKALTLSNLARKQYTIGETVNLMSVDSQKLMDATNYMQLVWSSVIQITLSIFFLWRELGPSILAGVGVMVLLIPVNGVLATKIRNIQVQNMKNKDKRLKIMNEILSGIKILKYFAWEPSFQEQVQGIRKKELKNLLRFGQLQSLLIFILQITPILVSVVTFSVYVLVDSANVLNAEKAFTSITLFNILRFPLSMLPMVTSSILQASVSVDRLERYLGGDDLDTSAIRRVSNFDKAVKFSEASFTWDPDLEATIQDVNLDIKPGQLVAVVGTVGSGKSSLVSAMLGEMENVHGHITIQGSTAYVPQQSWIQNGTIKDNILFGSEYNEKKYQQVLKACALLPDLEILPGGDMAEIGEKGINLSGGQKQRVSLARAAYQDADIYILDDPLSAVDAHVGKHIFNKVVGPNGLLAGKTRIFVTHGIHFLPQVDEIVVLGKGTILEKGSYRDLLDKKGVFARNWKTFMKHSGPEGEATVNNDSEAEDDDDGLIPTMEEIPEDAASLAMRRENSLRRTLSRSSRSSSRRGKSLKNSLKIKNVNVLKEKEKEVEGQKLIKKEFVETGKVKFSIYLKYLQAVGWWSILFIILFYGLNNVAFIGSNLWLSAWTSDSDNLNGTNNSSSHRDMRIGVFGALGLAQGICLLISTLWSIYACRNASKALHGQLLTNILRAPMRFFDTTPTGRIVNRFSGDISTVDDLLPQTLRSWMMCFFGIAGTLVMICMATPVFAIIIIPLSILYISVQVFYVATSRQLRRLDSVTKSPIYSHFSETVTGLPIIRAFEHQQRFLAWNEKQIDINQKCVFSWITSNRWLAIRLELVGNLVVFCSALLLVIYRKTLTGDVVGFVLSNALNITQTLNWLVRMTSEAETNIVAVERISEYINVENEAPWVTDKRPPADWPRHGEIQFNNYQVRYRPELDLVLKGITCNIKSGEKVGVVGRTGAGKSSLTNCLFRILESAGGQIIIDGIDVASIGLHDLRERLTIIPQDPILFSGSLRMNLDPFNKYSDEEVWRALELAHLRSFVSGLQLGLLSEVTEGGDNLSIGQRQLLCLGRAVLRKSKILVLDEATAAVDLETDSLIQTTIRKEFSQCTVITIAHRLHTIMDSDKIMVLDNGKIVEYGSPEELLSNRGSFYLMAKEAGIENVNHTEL

`O=C1OC(c2ccc(OS(=O)(=O)O)cc2)(c2ccc(OS(=O)(=O)O)cc2)c2c(Br)ccc(Br)c21` [DIBROMOSULFOPHTHALEIN]: the Activity entry in series [1] and in series [2] was “inhibitor [+]” throughout.
Consider `CC1(C)[C@@H](O[C@H]2O[C@H](C(=O)O)[C@@H](O)[C@H](O)[C@H]2O[C@@H]2O[C@H](C(=O)O)[C@@H](O)[C@H](O)[C@H]2O)CC[C@]2(C)[C@H]3C(=O)C=C4[C@@H]5C[C@@](C)(C(=O)O)CC[C@]5(C)CC[C@@]4(C)[C@]3(C)CC[C@@H]12` [GLYCYRRHIZIN], for which the Activity result in series [3] and in series [4] was “substrate [+]” throughout.
